What was measured:
[1] = dhBBR-to-BBR reversion in rat small intestine homogenate; assay type: in vitro ADME; conditions: 10-min incubation
Method: The rat duodenum, jejunum and ileum were collected separately, washed thoroughly with saline and dried. After being weighed, the tissues were homogenized with saline at a ratio of 1: 2 [w (g) /v (ml)]. DhBBR was dissolved in a mixture of methanol and DMSO at a ratio of 1:1 with a final concentration of 5 mg/ml. Ten microliters of dhBBR (5 mg/ml) was mixed with 1 ml of the homogenates. The samples were then centrifuged at 14,000 g for 5 min, and the supernatants were collected and mixed with an equal volume of ice-cold acetonitrile to terminate the reaction. The samples were centrifuged at 14,000 g for 5 min, and the supernatant was used for the HPLC analysis.

nitroreductase = biological target: T1, nitroreductase (Escherichia coli, UniProt P38489); assay: Nitroreductase-mediated BBR reduction, cell-free incubation; assay type: biochemical; conditions: BBR with nitroreductase, 37 °C
T1 construct: purchased Sigma-Aldrich Co. (Shanghai, China); host or cells: Escherichia coli
Method: BBR was incubated with nitroreductase in intestinal bacteria cultures. The reaction mixture consisted of BBR (50 μg/ml), an NADPH-regenerating system and nitroreductase (5 μg/ml) in a final volume of 1 ml under the protection of N2. After incubation for 0, 2, 4, 6 and 12 h at 37 °C, the reaction was terminated by the addition of 1 ml of ice-cold acetonitrile. The samples were then extracted with 1 ml of ethyl acetate after adding 1 ml of 0.5 M sodium hydroxide solution. The organic phase was evaporated to dryness under a nitrogen flow in a water bath at 40 °C. The residue was dissolved with 200 μl of the mobile phase for further analysis. 2-Iodosobenzoic acid (2-IBA), a specific inhibitor of nitroreductase, was used to verify the role of bacterial nitroreductase.

T1 sequence (P38489 whole entry): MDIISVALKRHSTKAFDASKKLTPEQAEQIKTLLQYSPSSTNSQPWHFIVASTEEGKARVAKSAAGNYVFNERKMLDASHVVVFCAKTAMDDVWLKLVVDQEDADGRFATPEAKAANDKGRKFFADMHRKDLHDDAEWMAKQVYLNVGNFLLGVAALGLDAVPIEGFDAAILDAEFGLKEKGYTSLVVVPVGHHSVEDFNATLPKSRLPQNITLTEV

## COc1ccc2c(c1OC)CN1CCc3cc4c(cc3C1=C2)OCO4 [dhBBR, dihydroberberine]
[1]; duodenum and jejunum homogenate
  dhBBR-to-BBR reversion: almost completely
[1]; ileum homogenate
  dhBBR-to-BBR reversion rate: more than 80%
nitroreductase
  incubation time after which dhBBR became detectable: 4 h
